Data as given in patent publication US8088828B2, “Treating benign prostate hyperplasia with SARMS” (priority 2002, dated 2012).

Tests used:
Type in all cases: in vivo, rat
[1] = tested on: intact male Sprague-Dawley rats; assay: Organ weights in intact male rats after 3, 6 or 9 days of daily subcutaneous injections
Protocol: Methods: Male Sprague-Dawley rats were purchased from Harlan Biosciences (Indianapolis, Ind.). The animals were maintained on a 12-h cycle of light and dark with food and water available ad libitum. Male Sprague-Dawley rats weighing 189 to 226 g were randomly distributed into groups of 5 animals. The intact male rats were treated with hydroxy-flutamide (0.5, 1, 5, 10 or 25 mg/kg), finasteride (5 mg/kg), Compound VII (0.5, 1, 5, 10, 25 mg/kg) or vehicle for 3, 6, or 9 days. The drugs were dissolved in DMSO:PEG300 (20:80, v:v) and administered via daily subcutaneous injections, and the dosages were adjusted based on animal's body weight, which was measured on a daily basis. A group of castrated rats (n=5) was also included as control for each time point. […] The organ weights were normalized with the body weights. Percentage changes were determined by comparison to intact animals. Statistical analyses of all the parameters were performed by single-factor ANOVA with the alpha value set a priori at p<0.05.

[2] = tested on: intact male Sprague-Dawley rats; assay: Prostate weight in intact Sprague-Dawley rats after 7 days of oral gavage
[3] = tested on: intact male rats; assay: Compound VII 0.5 mg/day in intact male rats, organ weights
[4] = 3 days, in general over 0.5, 1, 5, 10, 25 mg/kg s.c.
[5] = 9 days, high doses (5, 10, 25 mg/kg) s.c.

With `C[C@](O)(COc1ccc(F)cc1)C(=O)Nc1ccc([N+](=O)[O-])c(C(F)(F)F)c1` [Compound VII] the “effect on levator ani muscle weight” value ([1]; 3 days, 0.5, 1, 5, 10, 25 mg/kg s.c.) was “without affecting”, the “prostate weight (compared to intact animals)” value [1, 4] was 80% and the “seminal vesicle weight (compared to intact animals)” value [1, 4] was 70%. The “changes in levator ani muscle weights” value ([1]; 6 days, 5, 10, 25 mg/kg s.c.) was “none of these doses caused any significant changes”, the “increase of levator ani muscle weight” value ([1]; 9 days, 25 mg/kg s.c.) was 12% and the “prostate weight (compared to intact animals)” value [1, 5] was 50%. The “seminal vesicle weight (compared to intact animals)” value [1, 5] was 45%, the “levator ani muscle weight (compared to intact animals)” value ([1]; 9 days, highest dose group (25 mg/kg) s.c.) was 112% and the “changes in levator ani muscle weights” value ([1]; 9 days, most of the dose groups s.c.) was “no significant changes”. For the same compound, the “atrophy in prostate on increasing the dose 100-fold” value ([2]; 10 mg/kg compared to 1000 mg/kg as printed) was “did not significantly increase”, the “reduction of prostate weight (normalized to body weight) compared to the intact control” value ([2]; all treatment groups, oral gavage once daily for 7 days, p<0.01) was “greater than 48.4%” and the “effect on levator ani muscle weight” value [3] was “without affecting”. For the same compound, the prostate weight [3] was 63 % of that observed in vehicle-treated intact animals.
